Literature values, collected in patent publication US7071293B1, “Alpha helical peptides with broad spectrum antimicrobial activity that are insensitive to salt” (priority 1999, dated 2006).
Values after ≈ are worked out from the molar mass of the structure shown. Values joined by “and” are separate entries in the source; they are usually repeats but may differ in a detail not shown here. Equal entries are not always repeated. Where two headings read alike, the source gives them in different places.

Tests used:
[1] = test system: Bacillus spp.; conditions: cited from earlier work
[2] = test system: Bacteroides fragilis; conditions: cited from earlier work
[3] = test system: Bordetella bronchiseptica; conditions: cited from earlier work
[4] = test system: Borrelia burgdorferi; conditions: cited from earlier work
[5] = test system: Branhamella (Moraxella) catarrhalis; conditions: MIC range; Branhamella (Moraxella) catarrhalis (β-lactamase producer); cited from earlier work
[6] = test system: Campylobacter jejuni; conditions: cited from earlier work
[7] = test system: Campylobacter pylori; conditions: cited from earlier work
[8] = test system: Enterococcus faecium; conditions: cited from earlier work
[9] = test system: Enterococcus spp.; conditions: cited from earlier work
[10] = test system: Haemophilus ducreyi; conditions: cited from earlier work
[11] = test system: Haemophilus influenzae; conditions: cited from earlier work; for MIC50 / MIC90: in µg/mL; for Range: MIC range
[12] = test system: Haemophilus parainfluenzae; conditions: cited from earlier work
[13] = test system: Listeria monocytogenes; conditions: cited from earlier work
[14] = test system: Neisseria gonorrhoeae; conditions: cited from earlier work; for MIC90: in µg/mL
[15] = test system: Neisseria meningitidis; conditions: cited from earlier work
[16] = test system: Staphylococcus aureus; conditions: cited from earlier work
[17] = test system: Streptococcus agalactiae; conditions: cited from earlier work
[18] = test system: Streptococcus pneumoniae; conditions: cited from earlier work
[19] = test system: Streptococcus pyogenes; conditions: in µg/mL; cited from earlier work
[20] = test system: Streptococcus spp.; conditions: cited from earlier work
[21] = Haemophilus influenzae (non β-lactamase producer)
[22] = Haemophilus influenzae (penicillin resistant)
[23] = Haemophilus influenzae (penicillin susceptible)
[24] = Haemophilus influenzae (β-lactamase producer)
[25] = Staphylococcus aureus (penicillin susceptible)

## CC[C@H]1OC(=O)[C@H](C)[C@@H](O[C@H]2C[C@@](C)(OC)[C@@H](O)[C@H](C)O2)[C@H](C)[C@@H](O[C@@H]2O[C@H](C)C[C@H](N(C)C)[C@H]2O)[C@](C)(O)C[C@@H](C)C(=O)[C@H](C)[C@@H](O)[C@]1(C)O [ERYTHROMYCIN, erythromycin]
[1]; MIC range
  Range: 0.03–2
[1]
  MIC90: 2 µg/mL (≈ 2.73 µM)
[2]; MIC range
  Range: 0.25–16
[2]
  MIC50: 1 µg/mL (≈ 1.36 µM)
  MIC90: 8 µg/mL (≈ 10.9 µM)
[3]; MIC range
  Range: 4–32
[3]
  MIC50: 8 µg/mL (≈ 10.9 µM)
  MIC90: 32 µg/mL (≈ 43.6 µM)
[4]
  MIC50: 0.03 µg/mL (≈ 0.0409 µM)
  MIC90: 0.06 µg/mL (≈ 0.0818 µM)
[5]
  Range: 0.06–1 and 0.03–0.25 and 0.06–8
[6]; MIC range
  Range: 0.5–8
[6]; in µg/mL
  MIC90: 4 and 2
[7]; MIC range
  Range: 0.25–16
[7]
  MIC50: 0.5 µg/mL (≈ 0.681 µM)
[8]
  MIC50: 1 µg/mL (≈ 1.36 µM)
[9]
  MIC50: 2 µg/mL (≈ 2.73 µM)
[10]
  MIC50: 0.004 µg/mL (≈ 0.00545 µM)
  MIC90: 0.06 µg/mL (≈ 0.0818 µM)
[11]; [21]
  MIC50: 2 and 4
  MIC90: 4 and 8
[11]; [22]
  MIC50: 8
  MIC90: 16
  Range: 8–16
[11]; [23]
  MIC50: 8
  MIC90: 16
  Range: 0.25–16
[11]; [24]
  MIC50: 4 and 2
  MIC90: 8 and 4
[11]; Haemophilus influenzae
  MIC50: 2 and 1
  MIC90: 2 and 4
  Range: 0.5–8
[12]; MIC range
  Range: 0.5–8
[12]
  MIC50: 2 µg/mL (≈ 2.73 µM)
  MIC90: 4 µg/mL (≈ 5.45 µM)
[13]
  MIC50: 0.5 µg/mL (≈ 0.681 µM)
[14]; MIC range, Neisseria gonorrhoeae (non β-lactamase producer)
  Range: 0.015–4 and 0.03–2
[14]; Neisseria gonorrhoeae (non β-lactamase producer)
  MIC90: 2 and 1
[14]; Neisseria gonorrhoeae (β-lactamase producer)
  MIC90: 2 and 4
[14]; Neisseria gonorrhoeae
  MIC90: 1
[15]; MIC range
  Range: 0.5–8
[15]
  MIC50: 1 µg/mL (≈ 1.36 µM)
  MIC90: 8 µg/mL (≈ 10.9 µM)
[16]; Staphylococcus aureus (methicillin susceptible)
  MIC50: 0.5 µg/mL (≈ 0.681 µM)
[16]; [25]
  MIC50: 0.5 µg/mL (≈ 0.681 µM)
  MIC90: 0.5 µg/mL (≈ 0.681 µM)
[16]; Staphylococcus aureus
  MIC50: 0.5 µg/mL (≈ 0.681 µM)
[17]; MIC range
  Range: 0.03–0.25 and 0.015–0.06
[17]
  MIC50: 0.03 µg/mL (≈ 0.0409 µM)
  MIC90: 0.03 µg/mL (≈ 0.0409 µM)
[18]; MIC range
  Range: 0.03–0.25 and 0.015–0.06 and 0.015–0.25
[18]; in µg/mL
  MIC50: 0.06 and 0.03
  MIC90: 0.03 and 0.06
[19]
  MIC50: 0.06 and 0.03
[20]
  MIC50: 0.03 µg/mL (≈ 0.0409 µM)
